The values below come from patent publication US20160158200A1, “Combinations of Hepatitis C Virus Inhibitors” (priority 2013, published 2016).

The subject of the assay is HCV genotype-1a variant with glutamine 30 changed to glutamate in the NS5A protein. It is filed as cell-based. As to conditions: test compound titrated with BMS-790052 fixed at 200 nM; genotype 1a Q30E replicon. The method in brief: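 Synergy was assessed by combining several fixed amounts of an NS5A-targeting compound with a titration of the second compound of interest.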
A general note: A replicon is a self-replicating genome or part of one, used to study replication in cells.

Consider `CC(C)[C@H](NC(=O)c1ccno1)c1ncc(-c2ccc(-c3ccc(-c4cnc([C@@H](NC(=O)c5ccno5)C(C)C)[nH]4)cc3)cc2)[nH]1` [Compound S-100], for which the “Fold-Synergistic 1a (Q30E)” value is more than 100 fold.
With `CC(C)[C@H](NC(=O)c1cc(C(C)(C)C)nn1C)c1ncc(-c2ccc(-c3ccc(-c4cnc([C@@H](NC(=O)c5cc(C(C)(C)C)nn5C)C(C)C)[nH]4)cc3)cc2)[nH]1` [Compound S-101] the figure was more than 100 fold; with `Cc1cc(C(=O)N[C@H](c2ncc(-c3ccc(-c4ccc(-c5cnc([C@@H](NC(=O)c6cc(C)oc6C(F)(F)F)C(C)C)[nH]5)cc4)cc3)[nH]2)C(C)C)c(C(F)(F)F)o1` [Compound S-102], more than 100 fold.
On to `CC(C)[C@H](NC(=O)c1ccc(C(F)(F)F)nc1)c1ncc(-c2ccc(-c3ccc(-c4cnc([C@@H](NC(=O)c5ccc(C(F)(F)F)nc5)C(C)C)[nH]4)cc3)cc2)[nH]1` [Compound S-103], for which the “Fold-Synergistic 1a (Q30E)” value is listed as more than 100 fold.
Next, `Cc1oncc1C(=O)N[C@H](c1ncc(-c2ccc(-c3ccc(-c4cnc([C@@H](NC(=O)c5cnoc5C)C(C)C)[nH]4)cc3)cc2)[nH]1)C(C)C` [Compound S-104]: more than 100 fold.
Next, `CC(C)[C@H](NC(=O)c1nccn1C)c1ncc(-c2ccc(-c3ccc(-c4cnc([C@@H](NC(=O)c5nccn5C)C(C)C)[nH]4)cc3)cc2)[nH]1` [Compound S-105]: less than 10 fold; `O=C(C1CC1)N1CCC[C@H]1c1ncc(-c2ccc(-c3ccc(-c4cnc([C@@H]5CCCN5C(=O)C5CC5)[nH]4)cc3)cc2)[nH]1` [Compound S-109]: less than 10 fold.
With `CC(C)CC(=O)N1CCC[C@H]1c1ncc(-c2ccc(-c3ccc(C4=CNC([C@@H]5CCCN5C(=O)CC(C)C)N4)cc3)cc2)[nH]1` (stereo partly drawn) [Compound S-112] the figure was less than 10 fold.
On to `O=C(c1ccccc1Oc1ccccc1)N1CCC[C@H]1c1ncc(-c2ccc(-c3ccc(-c4cnc([C@@H]5CCCN5C(=O)c5ccccc5Oc5ccccc5)[nH]4)cc3)cc2)[nH]1` [Compound S-114], for which the “Fold-Synergistic 1a (Q30E)” value is less than 10 fold.
Next, `O=C(c1cccc(Oc2ccccc2)c1)N1CCC[C@H]1c1ncc(-c2ccc(-c3ccc(-c4cnc([C@@H]5CCCN5C(=O)c5cccc(Oc6ccccc6)c5)[nH]4)cc3)cc2)[nH]1` [Compound S-116]: less than 10 fold; `O=C(c1ccc(-c2ccccc2)cc1)N1CCC[C@H]1c1ncc(-c2ccc(-c3ccc(-c4cnc([C@@H]5CCCN5C(=O)c5ccc(-c6ccccc6)cc5)[nH]4)cc3)cc2)[nH]1` [Compound S-117]: more than 10 fold; `Cc1onc(-c2ccccc2)c1C(=O)N1CCC[C@H]1c1ncc(-c2ccc(-c3ccc(-c4cnc([C@@H]5CCCN5C(=O)c5c(-c6ccccc6)noc5C)[nH]4)cc3)cc2)[nH]1` [Compound S-118]: less than 10 fold.
As for `O=C(c1cccc2ccccc12)N1CCC[C@H]1c1ncc(-c2ccc(-c3ccc(-c4cnc([C@@H]5CCCN5C(=O)c5cccc6ccccc56)[nH]4)cc3)cc2)[nH]1` [Compound S-119], the “Fold-Synergistic 1a (Q30E)” value was more than 10 fold.
With `O=C(c1cc2ccccc2[nH]1)N1CCC[C@H]1c1ncc(-c2ccc(-c3ccc(-c4cnc([C@@H]5CCCN5C(=O)c5cc6ccccc6[nH]5)[nH]4)cc3)cc2)[nH]1` [Compound S-120] the figure was less than 10 fold; with `O=C(c1ccc2c(c1)OCO2)N1CCC[C@H]1c1ncc(-c2ccc(-c3ccc(-c4cnc([C@@H]5CCCN5C(=O)c5ccc6c(c5)OCO6)[nH]4)cc3)cc2)[nH]1` [Compound S-121], less than 10 fold.
Next, `O=C(c1cc2ccccc2o1)N1CCC[C@H]1c1ncc(-c2ccc(-c3ccc(-c4cnc([C@@H]5CCCN5C(=O)c5cc6ccccc6o5)[nH]4)cc3)cc2)[nH]1` [Compound S-122]: more than 10 fold.
With `O=C(c1cnc(Cl)c(Cl)c1)N1CCC[C@H]1c1ncc(-c2ccc(-c3ccc(C4=CNC([C@@H]5CCCN5C(=O)c5cnc(Cl)c(Cl)c5)N4)cc3)cc2)[nH]1` (stereo partly drawn) [Compound S-133] the figure was less than 10 fold.
With `O=C(N1CCC[C@H]1c1ncc(-c2ccc(-c3ccc(-c4cnc([C@@H]5CCCN5C(=O)C5(c6ccc(F)cc6Cl)CCCC5)[nH]4)cc3)cc2)[nH]1)C1(c2ccc(F)cc2Cl)CCCC1` [Compound S-156], the “Fold-Synergistic 1a (Q30E)” value is reported as less than 10 fold.
Next, `O=C(C1Cc2ccccc2O1)N1CCC[C@H]1c1ncc(-c2ccc(-c3ccc(-c4cnc([C@@H]5CCCN5C(=O)C5Cc6ccccc6O5)[nH]4)cc3)cc2)[nH]1` (stereo partly drawn) [Compound S-157]: more than 10 fold; `CC1(C(=O)N2CCC[C@H]2c2ncc(-c3ccc(-c4ccc(-c5cnc([C@@H]6CCCN6C(=O)C6(C)CC6)[nH]5)cc4)cc3)[nH]2)CC1` [Compound S-160]: less than 10 fold.
With `O=C([C@@H]1C[C@H]1c1ccccc1)N1CCC[C@H]1c1ncc(-c2ccc(-c3ccc(-c4cnc([C@@H]5CCCN5C(=O)[C@@H]5C[C@H]5c5ccccc5)[nH]4)cc3)cc2)[nH]1` [Compound S-161] the figure was more than 10 fold; with `O=C(c1cncnc1)N1CCC[C@H]1c1ncc(-c2ccc(-c3ccc(-c4cnc([C@@H]5CCCN5C(=O)c5cncnc5)[nH]4)cc3)cc2)[nH]1` [Compound S-195], less than 10 fold.
Next, `COc1ccc2c(C(=O)N3CCC[C@H]3c3ncc(-c4ccc(-c5ccc(-c6cnc([C@@H]7CCCN7C(=O)c7nccc8cc(OC)ccc78)[nH]6)cc5)cc4)[nH]3)nccc2c1` [Compound S-198]: more than 100 fold; `COc1cnc(C(=O)N2CCC[C@H]2c2ncc(-c3ccc(-c4ccc(-c5cnc([C@@H]6CCCN6C(=O)c6ncc(OC)c7ccccc67)[nH]5)cc4)cc3)[nH]2)c2ccccc12` [Compound S-199]: more than 100 fold; `O=C(c1cnc(Cl)c2ccccc12)N1CCC[C@H]1c1ncc(-c2ccc(-c3ccc(-c4cnc([C@@H]5CCCN5C(=O)c5cnc(Cl)c6ccccc56)[nH]4)cc3)cc2)[nH]1` [Compound S-200]: more than 100 fold.
Take `COc1cccc2c(C(=O)N3CCC[C@H]3c3ncc(-c4ccc(-c5ccc(-c6cnc([C@@H]7CCCN7C(=O)c7nccc8c(OC)cccc78)[nH]6)cc5)cc4)[nH]3)nccc12` [Compound S-201]: the “Fold-Synergistic 1a (Q30E)” value was more than 100 fold.
With `O=C(c1nccc2ccccc12)N1CCC[C@H]1c1ncc(-c2ccc(-c3ccc(-c4cnc([C@@H]5CCCN5C(=O)c5nccc6ccccc56)[nH]4)cc3)cc2)[nH]1` [Compound S-202] the figure was more than 100 fold.
On to `O=C(c1cccc2cnccc12)N1CCC[C@H]1c1ncc(-c2ccc(-c3ccc(-c4cnc([C@@H]5CCCN5C(=O)c5cccc6cnccc56)[nH]4)cc3)cc2)[nH]1` [Compound S-203], for which the “Fold-Synergistic 1a (Q30E)” value was less than 10 fold.
As for `COc1ccc2c(C(=O)N3CCC[C@H]3c3ncc(-c4ccc(-c5ccc(-c6cnc([C@@H]7CCCN7C(=O)c7nc(Cl)cc8cc(OC)ccc78)[nH]6)cc5)cc4)[nH]3)nc(Cl)cc2c1` [Compound S-204], the “Fold-Synergistic 1a (Q30E)” value was more than 100 fold.
For `O=C(c1nccc2c(Cl)cccc12)N1CCC[C@H]1c1ncc(-c2ccc(-c3ccc(-c4cnc([C@@H]5CCCN5C(=O)c5nccc6c(Cl)cccc56)[nH]4)cc3)cc2)[nH]1` [Compound S-206], the “Fold-Synergistic 1a (Q30E)” value is on record as more than 100 fold.
Next, `CCOC(=O)N[C@H](c1ncc(-c2ccc(-c3ccc(-c4cnc([C@@H](NC(=O)OCC)C(C)C)[nH]4)cc3)cc2)[nH]1)C(C)C` [Compound S-207]: more than 10 fold; `CCCOC(=O)N[C@H](c1ncc(-c2ccc(-c3ccc(-c4cnc([C@@H](NC(=O)OCCC)C(C)C)[nH]4)cc3)cc2)[nH]1)C(C)C` [Compound S-208]: more than 100 fold.
Next, `CCCCOC(=O)N[C@H](c1ncc(-c2ccc(-c3ccc(-c4cnc([C@@H](NC(=O)OCCCC)C(C)C)[nH]4)cc3)cc2)[nH]1)C(C)C` [Compound S-209]: more than 100 fold.
For the compound `CC(C)[C@H](NC(=O)OCC(C)(C)C)c1ncc(-c2ccc(-c3ccc(-c4cnc([C@@H](NC(=O)OCC(C)(C)C)C(C)C)[nH]4)cc3)cc2)[nH]1` [Compound S-210], the “Fold-Synergistic 1a (Q30E)” value is reported as more than 100 fold.
Next, `CC(C)COC(=O)N[C@H](c1ncc(-c2ccc(-c3ccc(-c4cnc([C@@H](NC(=O)OCC(C)C)C(C)C)[nH]4)cc3)cc2)[nH]1)C(C)C` [Compound S-211]: more than 100 fold.
With `C#CCOC(=O)N[C@H](c1ncc(-c2ccc(-c3ccc(-c4cnc([C@@H](NC(=O)OCC#C)C(C)C)[nH]4)cc3)cc2)[nH]1)C(C)C` [Compound S-212] the figure was more than 10 fold; with `CC(C)[C@H](NC(=O)OC1CCCC1)c1ncc(-c2ccc(-c3ccc(-c4cnc([C@@H](NC(=O)OC5CCCC5)C(C)C)[nH]4)cc3)cc2)[nH]1` [Compound S-213], more than 100 fold.
With `CC(C)[C@H](NC(=O)OCc1ccccc1)c1ncc(-c2ccc(-c3ccc(-c4cnc([C@@H](NC(=O)OCc5ccccc5)C(C)C)[nH]4)cc3)cc2)[nH]1` [Compound S-215] the figure was more than 100 fold.
With `O=C(OCc1ccccc1)N1CCC[C@H]1c1ncc(-c2ccc(-c3ccc(-c4cnc([C@@H]5CCCN5C(=O)OCc5ccccc5)[nH]4)cc3)cc2)[nH]1` [Compound S-216], the “Fold-Synergistic 1a (Q30E)” value is listed as more than 10 fold.
With `CCOC(=O)N1CCC[C@H]1c1ncc(-c2ccc(-c3ccc(-c4cnc([C@@H]5CCCN5C(=O)OCC)[nH]4)cc3)cc2)[nH]1` [Compound S-217] the figure was more than 10 fold; with `CCCOC(=O)N1CCC[C@H]1c1ncc(-c2ccc(-c3ccc(-c4cnc([C@@H]5CCCN5C(=O)OCCC)[nH]4)cc3)cc2)[nH]1` [Compound S-218], more than 10 fold; with `CCCCOC(=O)N1CCC[C@H]1c1ncc(-c2ccc(-c3ccc(-c4cnc([C@@H]5CCCN5C(=O)OCCCC)[nH]4)cc3)cc2)[nH]1` [Compound S-219], more than 10 fold.
